Reference: patent publication US4656158A, “Peptide, and production and use thereof” (Suntory Limited, priority 1984, dated 1987)

How the values were obtained:
[1] = solubility in solvents; assay type: physicochemical
[2] = repeated administration: immunogenicity and toxicity; assay type: in vivo

solubility in organic solvents ([1]; ethyl acetate, butyl acetate, ethyl ether, hexane, petroleum ether, benzene, chloroform): insoluble
solubility in methanol and acetic acid ([1]; methanol, acetic acid): partially
solubility in water ([1]; water): soluble
Compound: CC[C@H](C)[C@@H]1NC(=O)[C@H](CCCNC(=N)N)NC(=O)[C@H](CC(=O)O)NC(=O)[C@H](CCSC)NC(=O)[C@H](CCCNC(=N)N)NC(=O)CNC(=O)CNC(=O)[C@H](Cc2ccccc2)NC(=O)[C@@H](NC(=O)[C@H](CO)NC(=O)[C@H](CO)NC(=O)[C@H](CCCNC(=N)N)NC(=O)[C@H](CCCNC(=N)N)NC(=O)[C@H](CC(C)C)NC(=O)[C@@H](N)CO)CSSC[C@@H](C(=O)N[C@@H](CC(N)=O)C(=O)N[C@@H](CO)C(=O)N[C@@H](Cc2ccccc2)C(=O)N[C@@H](CCCNC(=N)N)C(=O)N[C@@H](Cc2ccc(O)cc2)C(=O)O)NC(=O)CNC(=O)[C@H](CC(C)C)NC(=O)CNC(=O)[C@H](CO)NC(=O)[C@H](CCC(N)=O)NC(=O)[C@H](C)NC(=O)CNC(=O)[C@H]([C@@H](C)CC)NC(=O)[C@H](CCCNC(=N)N)NC(=O)[C@H](CC(=O)O)NC(=O)[C@H](CCSC)NC(=O)[C@H](CCCNC(=N)N)NC(=O)CNC(=O)CNC(=O)[C@H](Cc2ccccc2)NC(=O)[C@@H](NC(=O)[C@H](CO)NC(=O)[C@H](CO)NC(=O)[C@H](CCCNC(=N)N)NC(=O)[C@H](CCCNC(=N)N)NC(=O)[C@H](CC(C)C)NC(=O)[C@@H](N)CO)CSSC[C@@H](C(=O)N[C@@H](CC(N)=O)C(=O)N[C@@H](CO)C(=O)N[C@@H](Cc2ccccc2)C(=O)N[C@@H](CCCNC(=N)N)C(=O)N[C@@H](Cc2ccc(O)cc2)C(=O)O)NC(=O)CNC(=O)[C@H](CC(C)C)NC(=O)CNC(=O)[C@H](CO)NC(=O)[C@H](CCC(N)=O)NC(=O)[C@H](C)NC(=O)CNC1=O [β-hANP, β-human atrial natriuretic polypeptide]
toxicity ([2]; gradually hydrolized in a body to L-amino acids): little toxicity
anaphylaxis shock ([2]; repeated administration): does not cause anaphylaxis shock
production of antibodies ([2]; repeated administration): does not stimulate production of antibodies
